In ChEMBL document CHEMBL6153050, “Repurposing FDA-approved drugs to target G-quadruplexes in breast cancer” (Eur J Med Chem, 2025):
Activity calls are given as the source filed them. No cut-off for these calls is given here.

Legend:
Quadruplex DNA [1] = conditions: time 10.0 min
Quadruplex DNA [2] = conditions: time 10.0 min; remark: listed apart in the source
Quadruplex DNA [3] = conditions: time 10.0 min; remark: listed apart in the source
Quadruplex DNA [4] = conditions: time 10.0 min; remark: listed apart in the source
Quadruplex RNA [5] = conditions: time 10.0 min
Quadruplex RNA [6] = conditions: time 10.0 min; remark: listed apart in the source
MCF7 [7] = test: Cytotoxicity against human MCF7 cells assessed as reduction in cell viability at 0.625 to 20 uM incubated for 6 days by SRB assay; type: functional, cell-based; conditions: dose 0.625-20 µM, time 6.0 day
MDA-MB-231 [8] = test: Cytotoxicity against human MDA-MB-231 cells assessed as reduction in cell viability at 20 uM incubated for 6 days by SRB assay; type: functional, cell-based; conditions: time 6.0 day
SK-BR-3 = test: Cytotoxicity against human SK-BR-3 cells assessed as reduction in cell viability at 20 uM incubated for 6 days by SRB assay; type: functional, cell-based; conditions: time 6.0 day
MDA-MB-231 [9] = test: Cytotoxicity against human MDA-MB-231 cells assessed as reduction in cell viability incubated for 6 days by SRB assay; type: functional, cell-based; conditions: Homo sapiens, MDA-MB-231, 144 h; for IC25: time 6 day, read-out: IC25
MCF7 [10] = test: Cytotoxicity against human MCF7 cells assessed as reduction in cell viability incubated for 6 days by SRB assay; type: functional, cell-based; conditions: Homo sapiens, MCF7, 144 h; for IC25: time 6 day, read-out: IC25
MCF7 [11] = test: Effect on cell cycle arrest in human MCF7 cells at IC25 concentration incubated for 6 days by PI staining based flow cytometric analysis; type: functional; conditions: time 6.0 day
MCF7 [12] = test: Effect on cell cycle arrest in human MCF7 cells at IC50 concentration incubated for 6 days by PI staining based flow cytometric analysis; type: functional; conditions: time 6.0 day
MDA-MB-231 [13] = test: Effect on cell cycle arrest in human MDA-MB-231 cells at IC25 concentration incubated for 6 days by PI staining based flow cytometric analysis; type: functional; conditions: time 6.0 day
MDA-MB-231 [14] = test: Effect on cell cycle arrest in human MDA-MB-231 cells at IC50 concentration incubated for 6 days by PI staining based flow cytometric analysis; type: functional; conditions: time 6.0 day
MDA-MB-231 [15] = test: Induction of DNA damage in human MDA-MB-231 cells assessed as increase in gamma-H2AX level at IC50 concentration incubated for 6 days by flow cytometric analysis; type: functional, cell-based; conditions: time 6.0 day
MCF7 [16] = test: Induction of DNA damage in human MCF7 cells assessed as increase in gamma-H2AX level at IC50 concentration incubated for 6 days by flow cytometric analysis; type: functional, cell-based; conditions: time 6.0 day
Quadruplex DNA [17] = test: Stabilization of G4 quadruplex DNA (unknown origin) in human MCF7 cells at IC50 concentration incubated for 6 days by flow cytometric analysis; type: cell-based; conditions: time 6.0 day
Quadruplex DNA [18] = test: Stabilization of G4 quadruplex DNA (unknown origin) in human MDA-MB-231 cells assessed as increase in G4 motif at IC50 concentration incubated for 6 days by flow cytometric analysis; type: cell-based; conditions: time 6.0 day
MDA-MB-231 [19] = test: Induction of DNA damage in human MDA-MB-231 cells assessed as increase in gamma-H2AX level at IC25 concentration incubated for 6 days by flow cytometric analysis; type: functional, cell-based; conditions: time 6.0 day
MCF7 [20] = test: Induction of DNA damage in human MCF7 cells assessed as increase in gamma-H2AX level at IC25 concentration incubated for 6 days by flow cytometric analysis; type: functional, cell-based; conditions: time 6.0 day
Quadruplex DNA [21] = test: Stabilization of G4 quadruplex DNA (unknown origin) in human MDA-MB-231 cells at IC25 concentration incubated for 6 days by flow cytometric analysis; type: cell-based; conditions: time 6.0 day
Quadruplex DNA [22] = test: Stabilization of G4 quadruplex DNA (unknown origin) in human MDA-MB-231 cells at IC50 concentration incubated for 6 days by flow cytometric analysis; type: cell-based; conditions: time 6.0 day
Quadruplex DNA [23] = test: Stabilization of G4 quadruplex DNA (unknown origin) in human MCF7 cells at IC25 concentration incubated for 6 days by flow cytometric analysis; type: cell-based; conditions: time 6.0 day

| Compound | deltaTm1/2 (Quadruplex DNA [1]) [°C] | deltaTm1/2 (Quadruplex DNA [2]) [°C] | deltaTm1/2 (Quadruplex DNA [3]) [°C] | deltaTm1/2 (Quadruplex DNA [4]) [°C] | deltaTm1/2 (Quadruplex RNA [5]) [°C] | deltaTm1/2 (Quadruplex RNA [6]) [°C] | other results |
| --- | --- | --- | --- | --- | --- | --- | --- |
| CCCCOc1cc(C(=O)NCCN(CC)CC)c2ccccc2n1 | 0.2 | 4.4 | 5.4 | 2.8 | 3.2 | 1 | – |
| CCN(CC)CCCC(C)Nc1c2ccc(Cl)cc2nc2ccc(OC)cc12 (stereo not given) | > 20 | 18.5 | > 20 | > 20 | > 20 | 15.4 | – |
| CCc1cc2c(cc1N1CCC(N3CCOCC3)CC1)C(C)(C)c1[nH]c3cc(C#N)ccc3c1C2=O | 0 | -3.3 | 2.5 | -1.1 | 4.6 | 1.1 | – |
| CCn1cc(C(=O)O)c(=O)c2cc(F)c(N3CCN(C)CC3)cc21 | 4.6 | 4.5 | 8 | 1 | 9.8 | 3.3 | – |
| CN(C)CCCOc1nn(Cc2ccccc2)c2ccccc12 | 2.5 | 3 | 8.4 | 1.1 | 5.1 | 0.3 | – |
| CN1CCC[C@@H]1Cc1c[nH]c2ccc(CCS(=O)(=O)c3ccccc3)cc12 | 0.6 | 5.2 | 6 | 4 | 4.5 | 0.8 | Activity (MCF7 [7]): Active |
| CONC(=O)Nc1ccc(-c2sc3c(c2CN(C)C)c(=O)n(-c2ccc(OC)nn2)c(=O)n3Cc2c(F)cccc2F)cc1 | 2.4 | 1.9 | 9.8 | 4.3 | 9.7 | -0.2 | – |
| COc1c(-c2ccc3cc(NS(C)(=O)=O)ccc3c2)cc(-n2ccc(=O)[nH]c2=O)cc1C(C)(C)C | -0.4 | 4.5 | 1.4 | -0.7 | 2.6 | -0.3 | – |
| COc1cc(NC(C)CCCN)c2ncccc2c1 (stereo not given) | 0.4 | -2.6 | 3.6 | 3.7 | 4.2 | 0.3 | – |
| COc1cc(O)c(C(=O)Nc2nc(C(=O)NCCN(C(C)C)C(C)C)cs2)cc1OC | 3.9 | 4.4 | 9.5 | 9.4 | 7.5 | 3.5 | – |
| COc1ccc(-c2cc(=O)c3c(OC)c(OC)c(OC)cc3o2)cc1OC | 1.5 | 4 | 10.6 | 5.3 | 8.1 | 1.1 | – |
| Cc1cc2ncc(C(=O)NCC(C)(C)NCC(=O)N3CCC[C@H]3C#N)cn2n1 | -0.1 | 5.4 | 3.1 | -0.9 | 1.9 | 0.4 | – |
| Cn1nnc(-c2ccc(-c3ccc(N4C[C@H](CO)OC4=O)cc3F)cn2)n1 | 1.2 | 1 | 3 | 2.3 | 1 | 1.2 | – |
| N[C@@H]1CCCCN(c2c(F)cc3c(=O)c(C(=O)O)cn(C4CC4)c3c2Cl)C1 | 1.3 | 1.7 | 4.9 | -0.3 | 2.8 | 1.7 | – |
| CN1CCCC(n2nc(Cc3ccc(Cl)cc3)c3ccccc3c2=O)CC1 (stereo not given) [AZELASTINE] | 7.7 | 5.3 | 17.1 | 8.1 | 9.6 | 2.3 | Activity (MDA-MB-231 [8]): Active; Activity (SK-BR-3): Active; IC50 (MDA-MB-231 [9]): 8.2 µM; IC25 (MDA-MB-231 [9]): 5.2 µM; IC50 (MCF7 [10]): 10.3 µM; IC25 (MCF7 [10]): 5.8 µM; Activity (MCF7 [11]): inactive; Activity (MCF7 [12]): inactive; Activity (MDA-MB-231 [13]): inactive; Activity (MDA-MB-231 [14]): inactive; Activity (MDA-MB-231 [15]): inactive; Activity (MCF7 [16]): Active; Activity (Quadruplex DNA [17]): Active; Activity (Quadruplex DNA [18]): Active |
| CCc1cc2c(cc1CC)CC(NC[C@H](O)c1ccc(O)c3[nH]c(=O)ccc13)C2 [INDACATEROL] | 1.5 | 5.8 | 6.2 | 4 | 4.9 | 0.6 | IC50 (MCF7 [10]): 7.4 µM; IC25 (MCF7 [10]): 4.3 µM |
| O=C(c1ccc(OCCN2CCCCC2)cc1)c1c(-c2ccc(O)cc2)sc2cc(O)ccc12 [RALOXIFENE] | 4 | 3.2 | 11 | 7.8 | 6.3 | 1.6 | IC50 (MDA-MB-231 [9]): 10.3 µM; IC25 (MDA-MB-231 [9]): 8.2 µM; IC50 (MCF7 [10]): 2.7 µM; IC25 (MCF7 [10]): 0.63 µM; Activity (MCF7 [11]): inactive; Activity (MCF7 [12]): inactive; Activity (MDA-MB-231 [13]): inactive; Activity (MDA-MB-231 [14]): inactive; Activity (MDA-MB-231 [19]): inactive; Activity (MDA-MB-231 [15]): inactive; Activity (MCF7 [20]): inactive; Activity (MCF7 [16]): inactive; Activity (Quadruplex DNA [21]): inactive; Activity (Quadruplex DNA [22]): inactive; Activity (Quadruplex DNA [23]): inactive; Activity (Quadruplex DNA [17]): inactive |
